In US6399568B1, “Cyclic tetrapeptide derivatives and medicinal use thereof” (Japan Energy Corporation, priority 1997, dated 2002):
Like-named read-outs stand apart in the source and are kept apart here. Non-standard residues stand in square brackets, D forms with d. Residues, ends and D or L forms follow the SMILES beside them. *: point of attachment. Aoe = N[C@@H](CCCCCC(=O)[C@@H]1CO1)C(=O)O; Asu = N[C@@H](CCCCCC(=O)O)C(=O)O; dPip = O=C(O)[C@H]1CCCCN1; Boc = CC(C)(C)OC(=O)*; NHOH = ON*

Key:
[1] = biological target: Mouse histone deacetylase; format: biochemical
Procedure: In an enzyme system using a radio-labelled acetylated histone as a substrate, histone deacetylase enzyme inhibiting activity was evaluated. The basic conditions were in accordance with the method of Yoshida et al. (J. Biol. Chem., 265, 17174-17179, 1990).
Mouse histone deacetylase to be used was partially purified from FM3A cells. Cells were suspended in HDA buffer (15 mM potassium phosphate, 5% glycerol, 0.2 mM EDTA, pH 7.5), homogenized and centrifuged (35000×g, 10 min) to collect the nuclei which in turn were homogenized in the same buffer containing 1 M (NH4)2SO4. After ultrasonic disruption and centrifugation, the concentration of (NH4)2SO4 in the supernatant was increased to 3.5 M to precipitate deacetylase enzyme proteins. This precipitate was redissolved in HDA buffer, dialyzed against HDA buffer, applied to DEAE-cellulose column and eluted in NaCl gradient. Active fractions were used as a histone deacetylase enzyme solution.
As a substrate, [^3H]acetyl histone was used. In a culture solution of FM3A cells in the presence of 5 mM sodium n-butyrate, [^3H]acetate was added, followed by incubation for 30 minutes to radio-label the histone. The histone was prepared in a conventional manner and used as a substrate solution.
An assay was performed by adding a compound to be tested at a given concentration while using a no-addition control group, and by incubating the substrate solution and the enzyme solution at 37° C. for 10 minutes (reaction volume, 100 μl). The enzyme reaction was stopped by adding 10 μl of concentrated hydrochloric acid and the excised [^3H]acetate was extracted with ethyl acetate for radioactivity measurement. The inhibiting activity was expressed by a concentration at which the enzyme activity in the control group was inhibited by 50% (50% inhibiting concentration).

B16/BL6 cells = assay: MHC class-I molecule expression promoting activity; format: cell-based, mouse; conditions: for conc. for 2-fold expression (nM) mean: mean of a plurality of assays; for conc. for 2-fold expression (nM) mean / Twice Promoting Concentration Cx2: 72 hours; for MHC class-I molecule expression promoting action: FIGS. 3 and 4, dependence on concentration of addition; for Twice Promoting Concentration Cx2: concentration at which MHC class-I expression is twice that without addition
Procedure: The cancer cells used were mouse melanoma cells, B16/BL6 cells, provided by, the National Cancer Institute, U.S.A. Said cells were cultivated in MEM media supplemented with 10% FBS at 37° C. in the presence of 5% carbon dioxide in an humidified incubator.
A compound to be tested was preliminarily dissolved in dimethyl sulfoxide (DMSO) and adjusted to a concentration of 100 mM or 10 mM (source solution).
Said B16/BL6 cells were inoculated on 96 well microplate at a cell density of 5000 cells per well, each well containing 200 μl of said medium. […] Thereafter, each well was once washed with PBS (phosphate buffered saline) and floating cells and the medium were removed. Then, the well was treated with 0.1% glutaraldehyde solution for 3 minutes to fix the cells.
The amount of MHC class-I molecule expressed on the surface of the fixed cells was measured by the following method. Anti-H-2K^bD^bD^d antibody, which is an antibody against mouse MHC classI molecule (commercially available from Meiji Milk Co., Ltd), was used as a primary antibody, biotinylated anti-mouse IgG+M (commercially available from Chemicon) was used as a secondary antibody, and streptavidin-β-galactosidase conjugate (commercially available from BRL) was reacted as a labelling enzyme. The amount of the thus labelled enzyme β-galactosidase was measured in a microplate reader by recording the fluorescent intensity (excitation: 365 nm, fluorescence: 450 nm) derived from the enzymaticreaction product using 4-methylumbelliferyl-β-D-galactoside (commercially available from Nacalai Tesque) as a substrate. […] The value obtained by subtracting said background level from the, actually measured value (an apparent value including the background level) was the true measurement reflecting the amount of expressed MHC class-I molecule.
A group without the addition of any compound to be tested was used as a reference group and the measurement of MHC class-I molecule expressed in said group was used as a standard value. The amount of MHC class-I molecule expressed at a concentration of addition of each test compound is shown as a relative amount, said standard value taken as one (1). For each compound to be tested, various concentrations of addition were selected to investigate the dependency of MHC class-I molecule expression promoting action on the concentration of addition.

[2] = tested on: mouse malignant melanoma B16 cell line; assay: Cell proliferation inhibition (72 hours); format: cell-based; conditions: read-out: 50% proliferation inhibiting concentration B16 (nM) mean
Text: (§1) In order to verify the action of the cyclic tetrapeptide derivative according to the present invention in inhibiting cell proliferation in cancerized cells, the action on the proliferation of the aforementioned B16/BL6 cells was investigated. The evaluation of cell proliferation rates was done utilizing a commercially available measuring kit, specifically, from Promega under the trade name CellTiter 96 Aqueous Non-Radioactive Proliferation Assay Kit. In the measuring kit, the amount of products through reduction of a reagent tetrazolium compound (3-(4,5-dimethylthiazol-2-yl)-5-(3-carboxymethoxyphenyl)-2-(4-sulfophenyl)-2H-tetrazolium, inner salt; MTS) by viable animal cells is determined by detecting spectrophotometrically the color generated from the products. Since the amount of products is proportional to the amount of viable cells, this kit is utilized to evaluate the amount of viable cells.
(§2) According to the procedure of Test Example 1, B16/BL6 cells are inoculated in a 96 well microplate and cultured for 24 hours. Then, 10 μl of a solution of the source solution of a compound to be tested which has been diluted to a predetermined amount per well is added. Thereafter, culture is continued for additional 48 hours and 20 μl of a reagent solution in the aforementioned CellTiter 96 Aqueous Non-Radioactive Proliferation Assay Kit is then added. After incubation is continued at 37° C. for 1 hour, the amount of color generation is measured as an absorbance at 490 n musing a microplate reader.
(§3) The amount of cell proliferation of a group to which a compound to be tested is added is expressed in a relative value as compared to the standard cell proliferation (100%) in a control group to which no compound to be tested is added. For each compound tested, the amounts of cell proliferation were measured at different concentrations of addition and the dependence of the quantitative cell proliferation on the concentration of addition was investigated. From the results, a concentration of addition at which the amount of cell proliferation was inhibited by 50% relative to the amount of cell proliferation in the control group without addition was determined.
(§4) The test method was in accordance with the above-mentioned procedure, except that the period of incubation after the addition of a compound was 72 hours.
(§5) As illustrative examples, results are shown for an evaluation using mouse malignant melanoma B16/BL6 and B16 cell lines; leukemia L1210 cell line, colon cancer Colon26 cell line, and liver cancer MH134 cell line as cancer cells. For the cell proliferation inhibiting action of each compound tested for these cancer cells, 50% proliferation inhibiting concentrations are shown in Table 4.

[3] = tested on: mouse malignant melanoma B16/BL6 cell line; format: cell-based; conditions: 72 hours; read-out: 50% proliferation inhibiting concentration B16/BL6 (nM) mean
Text: as §1
According to the procedure of Test Example 1, B16/BL6 cells are inoculated in a 96 well microplate and cultured for 24 hours. […] Thereafter, culture is continued for additional 48 hours and 20 μl of a reagent solution in the aforementioned CellTiter 96 Aqueous Non-Radioactive Proliferation Assay Kit is then added. After incubation is continued at 37° C. for 1 hour, the amount of color generation is measured as an absorbance at 490 n musing a microplate reader.
The amount of cell proliferation of a group to which a compound to be tested is added is expressed in a relative value as compared to the standard cell proliferation (100%) in a control group to which no compound to be tested is added. For each compound tested, the amounts of cell proliferation were measured at different concentrations of addition and the dependence of the quantitative cell proliferation on the concentration of addition was investigated.
as §4

[4] = tested on: colon cancer Colon26 cell line; assay: Cell proliferation inhibition (72 hours); format: cell-based, mouse; conditions: read-out: 50% proliferation inhibiting concentration Colon 26 (nM) mean
Text: as §1, §2, §3, §4, §5

leukemia L1210 cell line = assay: Cell proliferation inhibition (72 hours); format: cell-based, mouse; conditions: read-out: 50% proliferation inhibiting concentration L1210 (nM) mean
Text: as §1, §2, §3, §4, §5

[5] = tested on: liver cancer MH134 cell line; assay: Cell proliferation inhibition (72 hours); format: cell-based, mouse; conditions: read-out: 50% proliferation inhibiting concentration MH134 (nM) mean
Text: as §1, §2, §3, §4, §5

histone deacetylase = assay: Histone deacetylase enzyme inhibiting activity, synthetic peptide substrate; format: biochemical, mouse; conditions: enzyme from B16/BL6 cells; [3H]acetylated histone H4 peptide; 37° C. 3 hours
Procedure: The preparation of histone deacetylase was performed essentially according to the method of Yoshida et al. (J. Biol. Chem., 265,17174-17179, 1990). The enzyme to be used was partially purified from B16/BL6 cells. The cells were suspended in HDA buffer (15 mM potassium phosphate, 5% glycerol, 0.2 mM EDTA, […], pH 7.5), homogenized and centrifuged (2500×g, 10 min) to collect the nuclei, which in turn were homogenized in the same buffer containing 1 M (NH4)2SO4. After ultrasonic disruption and centrifugation, the concentration of (NH4)2SO4 in the collected supernatant was increased to 3.5 M to precipitate histone deacetylase. This precipitate was redissolved in HDA buffer, subjected to gel filtration to replace the solvent with HDA buffer, and used as a crude histone deacetylase enzyme solution.
As a substrate, a synthetic substrate peptide, [^3H]acetylated histone H4 peptide was used. This [^3H]acetylated histone H4 peptide was obtained by synthesizing the N-terminal peptide of histone H4; […] (the C-terminal being cysteine) and radio-acetylating with ^3H -acetic anhydride.
An assay was performed by incubating the synthetic substrate solution and the enzyme solution at 37° C. for 3 hours in the presence of a compound to be tested (reaction volume, 100 μl). The reaction was stopped by adding 25 μl of 1 M HCl and 0.2 M acetic acid and [^3H]acetate excised by the enzyme reaction was extracted with ethyl acetate for radioactivity measurement. As a control group, the same procedure was repeated without addition of any test compound to the reaction system. The inhibiting activity was expressed by a concentration at which the histone deacetylase enzyme activity in the control group was inhibited by 50% (50% inhibiting concentration).

[6] = enzyme from FM3A cells, [3H]acetyl histone, 37° C. 10 minutes

| Structure (SMILES) | IC50 [1, 6] [nM] | conc. for 2-fold expression (nM) mean (B16/BL6 cells) [nM] | IC50 [2] [nM] | IC50 [3] [nM] | IC50 [4] [nM] | IC50 (leukemia L1210 cell line) [nM] | IC50 [5] [nM] | IC50 (histone deacetylase) [nM] | MHC class-I molecule expression promoting action (B16/BL6 cells) | Twice Promoting Concentration Cx2 (B16/BL6 cells) [µM] | IC50 [1] [nM] | MHC class-I molecule expression promoting activity (B16/BL6 cells; allowed to act on animal cells (summary statement)) |
| --- | --- | --- | --- | --- | --- | --- | --- | --- | --- | --- | --- | --- |
| CC(=O)NCCCC[C@@H]1NC(=O)[C@H]2CCCN2C(=O)[C@H](Cc2ccccc2)NC(=O)[C@H](Cc2ccccc2)NC1=O [HDA-6, cyclo(-L-Lys(Ac)-L-Phe-L-Phe-D-Pro-)] (cyclo(FF[dP]K(Ac))) | 27800 | 240000 | – | – | – | – | – | – | – | – | – | – |
| C[C@@H]1NC(=O)[C@H]2CCCN2C(=O)[C@H](CCCCCC(=O)NO)NC(=O)[C@@H](C)NC1=O [HDA-13, cyclo(-L-Asu(NHOH)-D-Pro-L-Ala-D-Ala-)] (cyclo(A[dA][Asu](NHOH)[dP])) | – | 406 | 15400 | 866 | 11000 | 2770 | 7920 | – | – | – | – | – |
| O=C(CCCCCC[C@@H]1NC(=O)[C@H]2CCCN2C(=O)[C@H](Cc2ccccc2)NC(=O)[C@H](Cc2ccccc2)NC1=O)NO [HDA-17, cyclo(-Aaz(NHOH)-Phe-Phe-D-Pro-)] | 19.8 | 990 | 23500 | 1260 | 29300 | 7380 | 19900 | 24.7 | exhibited MHC class-I molecule expression promoting action | 1.12 | – | – |
| O=C(CCCC[C@@H]1NC(=O)[C@H]2CCCN2C(=O)[C@H](Cc2ccccc2)NC(=O)[C@H](Cc2ccccc2)NC1=O)NO [HDA-18, cyclo(-Api(NHOH)-Phe-Phe-D-Pro-)] | 390 | 10900 | > 100000 | 59300 | > 100000 | > 100000 | > 100000 | 150 | exhibited MHC class-I molecule expression promoting action | 11.6 | – | – |
| O=C(CCCCC[C@@H]1NC(=O)[C@H]2CCCN2C(=O)[C@H](Cc2ccccc2)NC(=O)[C@@H](Cc2ccccc2)NC1=O)NO [HDA-27, cyclo(-L-Asu(NHOH)-D-Phe-L-Phe-D-Pro-)] (cyclo([Asu](NHOH)[dF]F[dP])) | – | 3.01 | 309 | 18 | 277 | 53 | 236 | 3.44 | – | – | 1.45 | – |
| CC(C)C[C@@H]1NC(=O)[C@@H](Cc2ccccc2)NC(=O)[C@H](CCCCCC(=O)NO)NC(=O)[C@@H]2CCCN2C1=O [HDA-28, cyclo(-L-Asu(NHOH)-D-Phe-L-Leu-L-Pro-)] (cyclo([Asu](NHOH)[dF]LP)) | 6.04 | 80.2 | 3820 | 470 | 7370 | 1330 | 4830 | – | – | – | – | – |
| CC(C)C[C@@H]1NC(=O)[C@@H](Cc2ccccc2)NC(=O)[C@H](CCCCCC(=O)NO)NC(=O)[C@H]2CCCN2C1=O [HDA-29, cyclo(-L-Asu(NHOH)-D-Phe-L-Leu-D-Pro-)] (cyclo([Asu](NHOH)[dF]L[dP])) | 1.59 | 5.41 | 293 | 15.8 | 198 | 43.8 | 176 | – | – | – | – | – |
| CC(C)(C)OC(=O)NCCCC[C@@H]1NC(=O)[C@H](CCCCCC(=O)NO)NC(=O)[C@H]2CCCN2C(=O)[C@H](Cc2ccccc2)NC1=O [HDA-32, cyclo(-L-Asu(NHOH)-L-Lys(Boc)-L-Phe-D-Pro-)] (cyclo([Asu](NHOH)K(Boc)F[dP])) | 4.95 | 773 | – | – | – | – | – | – | – | – | – | – |
| CCCC(=O)[O-].[Na+] [Sodium n-butyrate, reference compound] | – | – | – | – | – | – | – | – | – | – | 119000 | – |
| O=C1N[C@@H](Cc2ccccc2)C(=O)N2CCCC[C@@H]2C(=O)N[C@@H](CCCCCC(=O)[C@@H]2CO2)C(=O)N[C@H]1Cc1ccccc1 [trapoxin A, reference compound] (cyclo([Aoe]FF[dPip])) | 0.47 | 3.59 | – | – | – | – | – | – | – | – | – | exhibit the MHC class-I molecule expression promoting activity |
